Measurements taken from PMC8779952, “The First Dimeric Derivatives of the Glycopeptide Antibiotic Teicoplanin” (Pharmaceuticals, 2022).
In brackets after ≈: the same amount, converted by molar mass. Where two headings read alike, the source gives them in different places.

Assays:
Assay type in all cases: cell-based
[1] = tested on: Staphylococcus aureus MRSA ATCC 33591
Procedure: (§1) The antibacterial evaluations were carried out as described in our previous publication. TLC was performed on Kieselgel 60 F254 (Merck) with detection either by immersion in ammonium molybdate–sulfuric acid solution followed by heating or by using Pauly’s reagent for detection. Flash column chromatography was performed using Silica gel 60 (Merck 0.040–0.063 mm).

[2] = tested on: Enterococcus faecalis 15376 VanA; conditions: Enterococcus faecalis 15376 VanA (vanA gene positive, teicoplanin-resistant)
Procedure: as §1

[3] = tested on: Staphylococcus aureus MSSA ATCC 29213
Procedure: as §1

[4] = tested on: Staphylococcus epidermidis ATCC 35984 biofilm
Procedure: as §1

[5] = tested on: Staphylococcus epidermidis mecA
Procedure: as §1

[6] = tested on: Enterococcus faecalis ATCC 51299 VanB
Procedure: as §1

[7] = tested on: Bacillus subtilis ATCC 6633
Procedure: as §1

[8] = tested on: Enterococcus faecalis ATCC 29212
Procedure: as §1

[9] = Enterococcus faecalis ATCC 51299 VanB (vanB gene positive)

CC(=O)N[C@H]1[C@H](O[C@@H]2c3ccc(c(Cl)c3)Oc3cc4cc(c3O)Oc3ccc(cc3Cl)C[C@H]3NC(=O)[C@H](N)c5ccc(O)c(c5)Oc5cc(O)cc(c5)[C@H](NC3=O)C(=O)N[C@H]4C(=O)N[C@H]3C(=O)N[C@@H]2C(=O)N[C@H](C(=O)O)c2cc(O)cc(O)c2-c2cc3ccc2O)O[C@H](CO)[C@@H](O)[C@@H]1O [Compound 3, teicoplanin pseudoaglycone]
MIC ([1]; ATCC 33591): 1 µg/mL (≈ 0.713 µM) | MIC [2]: 256 µg/mL (≈ 183 µM) | MIC ([3]; ATCC 29213): 2 µg/mL (≈ 1.43 µM) | MIC ([4]; ATCC 35984): 2 µg/mL (≈ 1.43 µM) | MIC ([5]; mecA): 1 µg/mL (≈ 0.713 µM) | MIC ([6]; ATCC 51299): 2 µg/mL (≈ 1.43 µM) | MIC ([7]; ATCC 6633): 2 µg/mL (≈ 1.43 µM) | MIC ([8]; ATCC 29212): 4 µg/mL (≈ 2.85 µM)

CC(=O)N[C@H]1[C@H](O[C@@H]2c3ccc(c(Cl)c3)Oc3cc4cc(c3O)Oc3ccc(cc3Cl)C[C@H]3NC(=O)[C@H](N)c5ccc(O)c(c5)Oc5cc(O)cc(c5)[C@H](NC3=O)C(=O)N[C@H]4C(=O)N[C@H]3C(=O)N[C@@H]2C(=O)N[C@H](C(=O)O)c2cc(O)cc(O[C@H]4O[C@H](CO)[C@@H](O)[C@H](O)[C@@H]4O)c2-c2cc3ccc2O)O[C@H](CO)[C@@H](O)[C@@H]1O [Compound 2]
MIC ([1]; ATCC 33591): 2 µg/mL (≈ 1.28 µM) | MIC [2]: 4 µg/mL (≈ 2.56 µM) | MIC ([3]; ATCC 29213): 4 µg/mL (≈ 2.56 µM) | MIC ([4]; ATCC 35984): 2 µg/mL (≈ 1.28 µM) | MIC ([5]; mecA): 4 µg/mL (≈ 2.56 µM) | MIC [6, 9]: 8 µg/mL (≈ 5.11 µM) | MIC ([7]; ATCC 6633): 2 µg/mL (≈ 1.28 µM) | MIC ([8]; ATCC 29212): 8 µg/mL (≈ 5.11 µM)

Teicoplanin [Teico (1)]
MIC ([1]; Staphylococcus aureus MRSA ATCC 33591 (methicillin-resistant)): 0.5 µg/mL | MIC [2]: 256 µg/mL | MIC ([3]; Staphylococcus aureus MSSA ATCC 29213 (methicillin-sensitive)): 0.5 µg/mL | MIC ([4]; Staphylococcus epidermidis ATCC 35984 biofilm): 2 µg/mL | MIC ([5]; Staphylococcus epidermidis mecA (mecA gene expression)): 16 µg/mL | MIC [6, 9]: 4 µg/mL | MIC ([7]; Bacillus subtilis ATCC 6633, minimum inhibitory concentration): 0.5 µg/mL | MIC ([8]; Enterococcus faecalis ATCC 29212): 2 µg/mL
